# Assay results: ChEMBL document CHEMBL1201862, “PubChem BioAssay data set” (2004)
#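 Cells were grown in 96-well plates and exposed to each compound for 48 hours at five concentrations; endpoints were interpolated linearly between bracketing concentrations, or set to the highest concentration if not reached. GI50 = concentration required for 50% inhibition of growth.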 Activity calls are given as the source filed them. Cut-off read from the data, not from the text of the source: active = GI50 up to about 1.1 µM and inactive = higher.
# Tests used:
# Assay in all cases: DTP human tumour cell line panel, 48 h
# BT-549 = tested on: BT-549
# Malme-3M = tested on: Malme-3M
# HOP-18 = tested on: HOP-18
# SK-OV-3 = tested on: SK-OV-3
# SNB-19 = tested on: SNB-19
# NCI-H23 = tested on: NCI-H23
# NCI-H226 = tested on: NCI-H226
# CAKI-1 = tested on: CAKI-1
# SNB-78 = tested on: SNB-78
# OVCAR-3 = tested on: OVCAR-3
# DMS-114 = tested on: DMS-114
# OVCAR-8 = tested on: OVCAR-8
# NCI-H522 = tested on: NCI-H522
# M14 = tested on: M14
# SF-539 = tested on: SF-539
# MDA-MB-231 = tested on: MDA-MB-231
# SK-MEL-5 = tested on: SK-MEL-5
# 786-0 = tested on: 786-0
# LOX IMVI = tested on: LOX IMVI
# PC-3 = tested on: PC-3
# OVCAR-4 = tested on: OVCAR-4
# LXFL 529 = tested on: LXFL 529
# COLO 205 = tested on: COLO 205
# SW-620 = tested on: SW-620
# DU-145 = tested on: DU-145
# HOP-62 = tested on: HOP-62
# TK-10 = tested on: TK-10
# NCI/ADR-RES = tested on: NCI/ADR-RES
# NCI-H460 = tested on: NCI-H460
# HCC 2998 = tested on: HCC 2998
# SR = tested on: SR
# MCF7 = tested on: MCF7
# T47D = tested on: T47D
# OVCAR-5 = tested on: OVCAR-5
# MDA-N = tested on: MDA-N
# EKVX = tested on: EKVX
# IGROV-1 = tested on: IGROV-1
# U-251 = tested on: U-251
# MOLT-4 = tested on: MOLT-4
# KM12 = tested on: KM12
# KM-20L2 = tested on: KM-20L2
# MDA-MB-435 = tested on: MDA-MB-435
# RPMI-8226 = tested on: RPMI-8226
# HL-60 = tested on: HL-60
# SK-MEL-28 = tested on: SK-MEL-28
# SF-268 = tested on: SF-268
# UACC-257 = tested on: UACC-257
# RXF 393 = tested on: RXF 393
# CCRF-CEM = tested on: CCRF-CEM
# HT-29 = tested on: HT-29
# UACC-62 = tested on: UACC-62
# DLD-1 = tested on: DLD-1
# A549 = tested on: A549
# Hs-578T = tested on: Hs-578T
# SN12C = tested on: SN12C
# SNB-75 = tested on: SNB-75
# HCT-116 = tested on: HCT-116
# SK-MEL-2 = tested on: SK-MEL-2
# HCT-15 = tested on: HCT-15
# A498 = tested on: A498
# K562 = tested on: K562
# SF-295 = tested on: SF-295
# ACHN = tested on: ACHN
# UO-31 = tested on: UO-31
# HOP-92 = tested on: HOP-92
smiles,measurement,setting,value
CCN(CC)CCNc1ccc2nnn3c4ccc(O)cc4c(=O)c1c23,GI50,BT-549,12.7 µM (inactive)
same,GI50,Malme-3M,4.93 µM (inactive)
same,GI50,HOP-18,20.5 µM (inactive)
same,GI50,SK-OV-3,8.22 µM (inactive)
same,GI50,SNB-19,5.52 µM (inactive)
same,GI50,NCI-H23,5.73 µM (inactive)
same,GI50,NCI-H226,3.35 µM (inactive)
same,GI50,CAKI-1,0.69 µM (active)
same,GI50,SNB-78,5.89 µM (inactive)
same,GI50,OVCAR-3,8.02 µM (inactive)
same,GI50,DMS-114,7.29 µM (inactive)
same,GI50,OVCAR-8,1.49 µM (inactive)
same,GI50,NCI-H522,6.82 µM (inactive)
same,GI50,M14,6.65 µM (inactive)
same,GI50,SF-539,1.71 µM (inactive)
same,GI50,MDA-MB-231,0.0361 µM (active)
same,GI50,SK-MEL-5,1.64 µM (inactive)
same,GI50,786-0,1.24 µM (inactive)
same,GI50,LOX IMVI,1.21 µM (inactive)
same,GI50,PC-3,3.09 µM (inactive)
same,GI50,OVCAR-4,2.64 µM (inactive)
same,GI50,LXFL 529,6.58 µM (inactive)
same,GI50,COLO 205,1.84 µM (inactive)
same,GI50,SW-620,0.583 µM (active)
same,GI50,DU-145,14.3 µM (inactive)
same,GI50,HOP-62,1.76 µM (inactive)
same,GI50,TK-10,5.56 µM (inactive)
same,GI50,NCI/ADR-RES,1.47 µM (inactive)
same,GI50,NCI-H460,0.0314 µM (active)
same,GI50,HCC 2998,1.52 µM (inactive)
same,GI50,SR,0.06 µM (active)
same,GI50,MCF7,2.7 µM (inactive)
same,GI50,T47D,18.5 µM (inactive)
same,GI50,OVCAR-5,8.02 µM (inactive)
same,GI50,MDA-N,4.09 µM (inactive)
same,GI50,EKVX,6.98 µM (inactive)
same,GI50,IGROV-1,4.01 µM (inactive)
same,GI50,U-251,2.86 µM (inactive)
same,GI50,MOLT-4,0.0407 µM (active)
same,GI50,KM12,1.01 µM (active)
same,GI50,KM-20L2,4.37 µM (inactive)
same,GI50,MDA-MB-435,3.56 µM (inactive)
same,GI50,RPMI-8226,2 µM (inactive)
same,GI50,HL-60,2.05 µM (inactive)
same,GI50,SK-MEL-28,11.4 µM (inactive)
same,GI50,SF-268,6.49 µM (inactive)
same,GI50,UACC-257,12.2 µM (inactive)
same,GI50,RXF 393,0.603 µM (active)
same,GI50,CCRF-CEM,0.586 µM (active)
same,GI50,HT-29,3.33 µM (inactive)
same,GI50,UACC-62,8.39 µM (inactive)
same,GI50,DLD-1,2.09 µM (inactive)
same,GI50,A549,0.161 µM (active)
same,GI50,Hs-578T,10.7 µM (inactive)
same,GI50,SN12C,1.64 µM (inactive)
same,GI50,SNB-75,2.07 µM (inactive)
same,GI50,HCT-116,0.935 µM (active)
same,GI50,SK-MEL-2,11.3 µM (inactive)
same,GI50,HCT-15,1.83 µM
same,GI50,A498,8.83 µM (inactive)
same,GI50,K562,1.62 µM (inactive)
same,GI50,SF-295,2.35 µM (inactive)
same,GI50,ACHN,0.745 µM (active)
same,GI50,UO-31,0.608 µM (active)
same,GI50,HOP-92,4.35 µM (inactive)
